#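 1) Cells in 96-well plates. 2) Compound, 48 h, 5 concentrations. 3) Linear interpolation between surrounding doses. 4) Unreached endpoint = highest concentration. Abbreviation: GI50, concentration required for 50% inhibition of growth. TGI: concentration producing complete growth inhibition.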
# Legend:
# Assay in all cases: growth of human tumour cells (NCI), 48 h
# RPMI-8226 leukemia = system: RPMI-8226 leukemia
# SW-620 colon = system: SW-620 colon
# LOX IMVI melanoma = system: LOX IMVI melanoma
# HCC-2998 colon = system: HCC-2998 colon
# PC-3 prostate = system: PC-3 prostate
# NCI/ADR-RES ovarian = system: NCI/ADR-RES ovarian
# SK-MEL-2 melanoma = system: SK-MEL-2 melanoma
# SNB-19 CNS = system: SNB-19 CNS
# HT29 colon = system: HT29 colon
# BT-549 breast = system: BT-549 breast
# SK-OV-3 ovarian = system: SK-OV-3 ovarian
# HOP-92 NSCLC = system: HOP-92 NSCLC
# SNB-75 CNS = system: SNB-75 CNS
# MDA-MB-435 = system: MDA-MB-435
# SF-268 CNS = system: SF-268 CNS
# EKVX NSCLC = system: EKVX NSCLC
# HCT-15 colon = system: HCT-15 colon
# A549 NSCLC = system: A549 NSCLC
# NCI-H522 lung = system: NCI-H522 lung
# CAKI-1 renal = system: CAKI-1 renal
# MOLT-4 leukemia = system: MOLT-4 leukemia
# SK-MEL-5 melanoma = system: SK-MEL-5 melanoma
# DU-145 prostate = system: DU-145 prostate
# OVCAR-4 ovarian = system: OVCAR-4 ovarian
# UACC-257 melanoma = system: UACC-257 melanoma
# HS 578T breast = system: HS 578T breast
# IGROV1 ovarian = system: IGROV1 ovarian
# SF-295 CNS = system: SF-295 CNS
# MALME-3M melanoma = system: MALME-3M melanoma
# M14 melanoma = system: M14 melanoma
# MCF7 breast = system: MCF7 breast
# A498 renal = system: A498 renal
# HL-60(TB) leukemia = system: HL-60(TB) leukemia
# ACHN renal = system: ACHN renal
# COLO 205 colon = system: COLO 205 colon
# K-562 leukemia = system: K-562 leukemia
# MDA-MB-231 breast = system: MDA-MB-231 breast
# TK-10 renal = system: TK-10 renal
# OVCAR-8 ovarian = system: OVCAR-8 ovarian
# U251 CNS = system: U251 CNS
# CCRF-CEM leukemia = system: CCRF-CEM leukemia
# SR leukemia = system: SR leukemia
# SK-MEL-28 melanoma = system: SK-MEL-28 melanoma
smiles,measurement,setting,value
O=C(Nc1cc(C(F)(F)F)cc(C(F)(F)F)c1)Nc1ccc2oc(=O)ccc2c1,GI50,RPMI-8226 leukemia,0.426 µM
same,TGI,RPMI-8226 leukemia,2.36 µM
same,GI50,SW-620 colon,3.02 µM
same,TGI,SW-620 colon,> 100 µM
same,GI50,LOX IMVI melanoma,1.6 µM
same,TGI,LOX IMVI melanoma,4.37 µM
same,GI50,HCC-2998 colon,2.77 µM
same,TGI,HCC-2998 colon,> 100 µM
same,GI50,PC-3 prostate,0.753 µM
same,TGI,PC-3 prostate,> 100 µM
same,GI50,NCI/ADR-RES ovarian,2.01 µM
same,TGI,NCI/ADR-RES ovarian,> 100 µM
same,GI50,SK-MEL-2 melanoma,1.68 µM
same,TGI,SK-MEL-2 melanoma,3.41 µM
same,GI50,SNB-19 CNS,1.23 µM
same,TGI,SNB-19 CNS,> 100 µM
same,GI50,HT29 colon,2.47 µM
same,TGI,HT29 colon,> 100 µM
same,GI50,BT-549 breast,2.36 µM
same,TGI,BT-549 breast,6.56 µM
same,GI50,SK-OV-3 ovarian,2.32 µM
same,TGI,SK-OV-3 ovarian,5.7 µM
same,GI50,HOP-92 NSCLC,1.41 µM
same,TGI,HOP-92 NSCLC,4.89 µM
same,GI50,SNB-75 CNS,1.93 µM
same,TGI,SNB-75 CNS,6.59 µM
same,GI50,MDA-MB-435,2.97 µM
same,TGI,MDA-MB-435,> 100 µM
same,GI50,SF-268 CNS,2.95 µM
same,TGI,SF-268 CNS,> 100 µM
same,GI50,EKVX NSCLC,3.92 µM
same,TGI,EKVX NSCLC,> 100 µM
same,GI50,HCT-15 colon,2.11 µM
same,TGI,HCT-15 colon,> 100 µM
same,GI50,A549 NSCLC,2.14 µM
same,TGI,A549 NSCLC,> 100 µM
same,GI50,NCI-H522 lung,1.4 µM
same,TGI,NCI-H522 lung,5 µM
same,GI50,CAKI-1 renal,1.25 µM
same,TGI,CAKI-1 renal,4.86 µM
same,GI50,MOLT-4 leukemia,0.758 µM
same,TGI,MOLT-4 leukemia,> 100 µM
same,GI50,SK-MEL-5 melanoma,1.23 µM
same,TGI,SK-MEL-5 melanoma,2.51 µM
same,GI50,DU-145 prostate,2 µM
same,TGI,DU-145 prostate,> 100 µM
same,GI50,OVCAR-4 ovarian,1.25 µM
same,TGI,OVCAR-4 ovarian,> 100 µM
same,GI50,UACC-257 melanoma,2.02 µM
same,TGI,UACC-257 melanoma,6.13 µM
same,GI50,HS 578T breast,2.44 µM
same,TGI,HS 578T breast,6.36 µM
same,GI50,IGROV1 ovarian,1.51 µM
same,TGI,IGROV1 ovarian,> 100 µM
same,GI50,SF-295 CNS,1.44 µM
same,TGI,SF-295 CNS,> 100 µM
same,GI50,MALME-3M melanoma,1.87 µM
same,TGI,MALME-3M melanoma,5.08 µM
same,GI50,M14 melanoma,2.71 µM
same,TGI,M14 melanoma,> 100 µM
same,GI50,MCF7 breast,2.88 µM
same,TGI,MCF7 breast,> 100 µM
same,GI50,A498 renal,1.67 µM
same,TGI,A498 renal,4.97 µM
same,GI50,HL-60(TB) leukemia,0.705 µM
same,TGI,HL-60(TB) leukemia,5.74 µM
same,GI50,ACHN renal,1.29 µM
same,TGI,ACHN renal,> 100 µM
same,GI50,COLO 205 colon,1.75 µM
same,TGI,COLO 205 colon,3.46 µM
same,GI50,K-562 leukemia,0.782 µM
same,TGI,K-562 leukemia,> 100 µM
same,GI50,MDA-MB-231 breast,2.77 µM
same,TGI,MDA-MB-231 breast,> 100 µM
same,GI50,TK-10 renal,2.99 µM
same,TGI,TK-10 renal,> 100 µM
same,GI50,OVCAR-8 ovarian,1.96 µM
same,TGI,OVCAR-8 ovarian,> 100 µM
same,GI50,U251 CNS,1.29 µM
same,TGI,U251 CNS,> 100 µM
same,GI50,CCRF-CEM leukemia,1.22 µM
same,TGI,CCRF-CEM leukemia,> 100 µM
same,GI50,SR leukemia,0.997 µM
same,TGI,SR leukemia,5.09 µM
same,GI50,SK-MEL-28 melanoma,2.79 µM
same,TGI,SK-MEL-28 melanoma,> 100 µM

# Source: PubChem BioAssay (NCI)
